In patent publication US12661365B2, “Use of cannabidiol in the treatment of epilepsy” (priority 2020, dated 2026):

What was measured:
serum ALT = experiment: Liver safety in the Phase 1 trial: serum liver chemistries (peak ALT versus ULN); type: in vivo, human
Excerpt: Clinical laboratory measurements of liver injury and function, the Upper Limit of Normal (ULN) values used are: 68 international units [IU]/L for ALT, 45 IU/L for aspartate aminotransferase (AST), 129 IU/L for alkaline phosphatase (ALP), 29 μmol/L for total bilirubin (TBL), and 59 IU/L for gamma-glutamyl transferase (GGT).
Drug induced liver injury (DILI) is when serum ALT exceeds 5×ULN.
In the above-outlined Phase 1 trial, abnormal liver chemistries were found for the subjects. This was unexpected as subjects were healthy adults receiving therapeutic equivalent doses of CBD used to treat Dravet Syndrome and Lennox-Gastaut Syndrome (1500 mg/day).
Measurements were performed at screening, on trial Days −1, 12, 18, 23, 27, and at follow-up.

[1] = Phase 1 open-label drug-drug interaction trial: effect of repeated-dose CBD on the pharmacokinetics of a single dose of caffeine (plasma caffeine and paraxanthine, LC-MS/MS); type: in vivo, human; conditions: trough samples Days 23, 25 and 26, 750 mg CBD b.i.d., before coadministration on Day 26
Excerpt: The duration of the trial was approximately 10 weeks, which includes a screening period (up to 4 weeks), a treatment period (4 weeks) and a safety follow-up period (2 weeks). After signing the informed consent form (ICF), participants entered the screening period (Day −28 to −1). […] The subjects were resident in the CRU for 2 periods. […] They were discharged on Day 3 after completion of the assessments. On Day 3, the first dose of CBD was taken in the morning in the CRU, and on this day, the escalating doses of CBD were dispensed to subjects to be taken at home from Day 4 to Day 12. After discharge on Day 3, the subjects returned to the CRU for ambulatory visits on Days 12, 18, and 23. At these ambulatory visits, the maintenance doses of CBD were dispensed to subjects to be taken at home from Day 13 to Day 25 (the evening dose of Day 25 was taken in the CRU). The subjects were admitted again to the CRU in the afternoon of Day 25. […] The subjects were discharged on Day 28 after completion of the assessments. […]
Plasma concentration of CBD determined on the following days: 23, 25, and 26. These were determined using liquid chromatography and tandem mass spectrometry. […]

[2] = healthy adults, CBD 1500 mg/day
[3] = healthy adults, CBD 1500 mg/day, 16 participants, ALT ULN 68 IU/L

C=C(C)[C@@H]1CCC(C)=C[C@H]1c1c(O)cc(CCCCC)cc1O [CBD, Cannabidiol]
rate of abnormal liver chemistries in healthy volunteers (serum ALT; CBD at the doses used in this study): 44%
exposure time at which all ALT elevations occurred (serum ALT; exposure to cannabidiol): 2-4 weeks
participants with peak ALT >5×ULN (international consensus criteria for DILI) (serum ALT; [2]): 5 (31%) participants
participants with peak serum ALT >2×ULN (serum ALT; [2]): 6 (38%) participants
participants with peak serum ALT ≥2 × ULN (serum ALT; [3]): 6 (38%)
participants with peak serum ALT ≥3 × ULN (serum ALT; [3]): 5 (31%)
participants with peak serum ALT ≥5 × ULN (serum ALT; [3]): 5 (31%)
participants with peak serum ALT ≥10 × ULN (serum ALT; [3]): 0 (0)
participants with peak serum ALT ≥20 × ULN (serum ALT; [3]): 0 (0)
participants with peak serum ALT >ULN (serum ALT; healthy adults, CBD up to 750 mg b.i.d. (1500 mg/day), 16 participants, ALT ULN 68 IU/L): 7 (44%)
trial days between which all ALT elevations occurred (serum ALT; trial day): 18 to 27 days
trough plasma levels of CBD [1]: reached steady state
